Experimental data as given in ChEMBL document CHEMBL5236567, “Discovery of a selective c-MET inhibitor with a novel binding mode” (Bioorg Med Chem Lett, 2022).

Key:
[1] = target: T1, Hepatocyte growth factor receptor (Homo sapiens, UniProt P08581, D1228V); test: Binding affinity to his-tagged c-MET D1228V mutant (1050 to 1346 residues) (unknown origin) assessed as dissociation constant by surface plasmon resonance analysis
[2] = target: T2, Hepatocyte growth factor receptor (Homo sapiens, UniProt P08581); test: Binding affinity to his-tagged c-MET (1050 to 1346 residues) (unknown origin) assessed as binding constant (Kon) by surface plasmon resonance analysis
[3] = target: T2, Hepatocyte growth factor receptor; test: Binding affinity to his-tagged c-MET (1050 to 1346 residues) (unknown origin) assessed as binding constant (Koff) by surface plasmon resonance analysis
[4] = target: T2, Hepatocyte growth factor receptor; test: Binding affinity to his-tagged wild type c-MET (1050 to 1346 residues) (unknown origin) by surface plasmon resonance analysis
[5] = target: T2, Hepatocyte growth factor receptor; test: Inhibition of his-tagged wild type c-MET (1050 to 1346 residues) (unknown origin) in human NCI-H1993 cells by HTRF analysis; assay type: cell-based
[6] = target: T1, Hepatocyte growth factor receptor; test: Inhibition of his-tagged c-MET D1228V mutant (1050 to 1346 residues) (unknown origin) by ADP-glo assay
[7] = target: T1, Hepatocyte growth factor receptor; test: Inhibition of his-tagged c-MET D1228V mutant (1050 to 1346 residues) (unknown origin) in human NCI-H1993 cells by HTRF analysis; assay type: cell-based
[8] = target: T2, Hepatocyte growth factor receptor; test: Inhibition of his-tagged wild type c-MET (1050 to 1346 residues) (unknown origin) by ADP-glo assay
[9] = target: TRAF2 and NCK-interacting protein kinase (Homo sapiens) (UniProt Q9UKE5); test: Inhibition of TNIK (unknown origin) at 10 uM relative to control
[10] = target: T2, Hepatocyte growth factor receptor; test: Inhibition of wild type c-MET (unknown origin ) at 10 uM relative to control
[11] = target: Calcium/calmodulin-dependent protein kinase type 1 (Homo sapiens) (UniProt Q14012); test: Inhibition of CAMK1 (unknown origin) at 10 uM relative to control
Calcium/calmodulin-dependent protein kinase type 1 (Homo sapiens), sequence (Q14012 whole entry, looked up): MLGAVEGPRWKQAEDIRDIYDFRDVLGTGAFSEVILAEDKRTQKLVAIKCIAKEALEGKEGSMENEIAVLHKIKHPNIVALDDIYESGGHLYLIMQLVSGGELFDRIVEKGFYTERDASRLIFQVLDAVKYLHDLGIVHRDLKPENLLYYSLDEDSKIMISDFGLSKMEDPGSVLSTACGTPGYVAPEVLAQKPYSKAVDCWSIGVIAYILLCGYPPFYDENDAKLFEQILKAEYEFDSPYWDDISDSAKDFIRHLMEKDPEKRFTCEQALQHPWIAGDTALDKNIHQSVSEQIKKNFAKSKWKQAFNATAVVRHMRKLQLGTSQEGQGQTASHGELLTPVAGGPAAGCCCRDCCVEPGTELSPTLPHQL

TRAF2 and NCK-interacting protein kinase (Homo sapiens), sequence (Q9UKE5 whole entry, looked up): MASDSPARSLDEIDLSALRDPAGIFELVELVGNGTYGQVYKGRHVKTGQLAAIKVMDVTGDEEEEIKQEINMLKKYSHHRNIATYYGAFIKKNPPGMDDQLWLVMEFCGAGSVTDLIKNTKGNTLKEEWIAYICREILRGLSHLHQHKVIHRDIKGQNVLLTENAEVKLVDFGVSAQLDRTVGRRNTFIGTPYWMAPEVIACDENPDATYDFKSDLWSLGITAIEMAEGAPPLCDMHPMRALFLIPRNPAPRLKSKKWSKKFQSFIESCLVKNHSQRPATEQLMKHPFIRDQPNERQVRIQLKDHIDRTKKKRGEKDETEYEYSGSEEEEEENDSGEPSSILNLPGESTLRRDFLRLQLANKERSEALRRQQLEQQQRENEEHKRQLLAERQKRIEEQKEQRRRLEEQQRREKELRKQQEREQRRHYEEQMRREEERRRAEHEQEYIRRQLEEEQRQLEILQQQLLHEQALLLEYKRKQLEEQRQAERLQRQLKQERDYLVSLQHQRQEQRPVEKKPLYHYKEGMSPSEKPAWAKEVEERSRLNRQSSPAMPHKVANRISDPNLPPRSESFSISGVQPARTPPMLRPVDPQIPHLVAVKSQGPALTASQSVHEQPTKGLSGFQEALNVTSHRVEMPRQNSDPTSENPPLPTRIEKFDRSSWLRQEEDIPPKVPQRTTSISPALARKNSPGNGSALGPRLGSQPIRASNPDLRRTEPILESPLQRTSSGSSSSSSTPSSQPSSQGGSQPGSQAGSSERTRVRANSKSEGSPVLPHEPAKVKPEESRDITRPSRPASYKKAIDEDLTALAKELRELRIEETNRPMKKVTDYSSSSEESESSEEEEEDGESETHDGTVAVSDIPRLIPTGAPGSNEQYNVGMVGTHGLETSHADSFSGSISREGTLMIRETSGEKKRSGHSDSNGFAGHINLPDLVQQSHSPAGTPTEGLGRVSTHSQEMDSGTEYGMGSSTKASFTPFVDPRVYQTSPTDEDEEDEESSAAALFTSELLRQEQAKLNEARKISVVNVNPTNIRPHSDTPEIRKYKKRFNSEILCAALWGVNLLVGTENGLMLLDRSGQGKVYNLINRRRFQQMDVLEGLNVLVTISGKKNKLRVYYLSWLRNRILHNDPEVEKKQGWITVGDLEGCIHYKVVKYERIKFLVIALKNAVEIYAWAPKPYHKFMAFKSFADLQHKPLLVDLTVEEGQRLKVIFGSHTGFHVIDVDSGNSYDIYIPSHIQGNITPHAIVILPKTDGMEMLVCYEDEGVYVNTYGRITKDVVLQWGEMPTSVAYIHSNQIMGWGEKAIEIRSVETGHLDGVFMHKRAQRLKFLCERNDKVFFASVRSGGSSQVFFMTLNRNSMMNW

Row | SMILES | Kd [1] | K [2] | koff [3] | Kd [4] | IC50 ([5]; nci-h1993) | IC50 [6] | IC50 ([7]; nci-h1993) | IC50 [8] | inhibition [9] | IC50 ([5]; read-out: IC50) | inhibition [10] | inhibition [11] | IC50 ([7]; read-out: IC50)
1 | Cc1ccc(-c2ccc3c(C)n[nH]c3c2)c2c1C(N(C)C(=O)c1ncccc1C(F)F)CCC2 (racemic) | 1.4 µM | 3.7 10^3/M/s | 0.0053 s⁻¹ | > 20 µM |  |  |  |  |  |  |  |  | 
2 | Cc1ccc(-c2ccc3c(C)n[nH]c3c2)c2c1[C@@H](N(C)C(=O)c1ncccc1C(F)F)CCC2 | 5.3 µM |  |  | 2.8 µM | Not Active | 11 µM | Not Active | 4.94 µM |  |  |  |  | 
3 | Cc1ccc(-c2ccc3c(C)n[nH]c3c2)c2c1[C@H](N(C)C(=O)c1ncccc1C(F)F)CCC2 | 0.65 µM |  |  | 7.2 µM |  | 0.09 µM |  | 0.9 µM | > 70% | > 30 µM | > 70% | > 70% | 12 µM
